The text below walks through data of ChEMBL document CHEMBL5154798, “Structure-based discovery of receptor tyrosine kinase AXL degraders with excellent anti-tumor activity by selectively degrading AXL and inducing methuosis” (Eur J Med Chem, 2022).

Data set [1] deals with MDA-MB-231. As to the kind of experiment: Antiproliferative activity against human MDA-MB-231 cells highly expressing AXL after 72 hrs by MTT assay. Particulars: MDA-MB-231, 72 h. (Tetrazolium dyes change colour on reduction, which living cells bring about.)
The next data set relates to 4T1. As to the kind of experiment: Antiproliferative activity against mouse 4T1 cells highly expressing AXL after 72 hrs by MTT assay. To be noted: 4T1, 72 h.
Data set [2] is described as follows: Cytotoxicity against human MCF-10A cells after 72 hrs by MTT assay. The format is toxicity, cell-based.
A short description of data set [3]: Cytotoxicity against human GES1 cells after 72 hrs by MTT assay. It is filed as toxicity, cell-based.
Data set [4] deals with MDA-MB-231. The data set is described as follows: Antitumor activity against human MDA-MB-231 cells xenografted in female BALB/c nude mouse assessed as tumor growth inhibition at 25 mg/kg, ip. The format is functional, organism-based. On the technique in general: Xenograft models place foreign cells or tissue in a host animal.
Data set [5] can be described thus: Toxicity in female BALB/c nude mouse xenografted with human MDA-MB-231 cells assessed as change in body wieght at 25 mg/kg, ip. Particulars: in vivo. The format is organism-based.
Data set [6] is described as follows: Systemic toxicity in female BALB/c nude mouse xenografted with human MDA-MB-231 cells assessed as necrosis of heart tissue at 25 mg/kg, ip. It is filed as organism-based. To be noted: in vivo.
Data set [7] in a line: Systemic toxicity in female BALB/c nude mouse xenografted with human MDA-MB-231 cells assessed as necrosis of liver tissue at 25 mg/kg, ip. It is filed as organism-based. To be noted: in vivo.
Data set [8] can be described thus: Systemic toxicity in female BALB/c nude mouse xenografted with human MDA-MB-231 cells assessed as necrosis of spleen tissue at 25 mg/kg, ip. The format is organism-based. Particulars: in vivo.
Data set [9] can be described thus: Systemic toxicity in female BALB/c nude mouse xenografted with human MDA-MB-231 cells assessed as necrosis of lung tissue at 25 mg/kg, ip. To be noted: in vivo. It is filed as organism-based.
Data set [10] can be described thus: Systemic toxicity in female BALB/c nude mouse xenografted with human MDA-MB-231 cells assessed as necrosis of kidney tissue at 25 mg/kg, ip. It is filed as organism-based. Particulars: in vivo.
Data set [11] can be described thus: Systemic toxicity in female BALB/c nude mouse xenografted with human MDA-MB-231 cells assessed as inflammatory cell infiltration in heart at 25 mg/kg, ip. It is filed as organism-based. To be noted: in vivo.
Data set [12] is described as follows: Systemic toxicity in female BALB/c nude mouse xenografted with human MDA-MB-231 cells assessed as inflammatory cell infiltration in liver at 25 mg/kg, ip. It is filed as organism-based. Particulars: in vivo.
A short description of data set [13]: Systemic toxicity in female BALB/c nude mouse xenografted with human MDA-MB-231 cells assessed as inflammatory cell infiltration in spleen at 25 mg/kg, ip. The format is organism-based. To be noted: in vivo.
A short description of data set [14]: Systemic toxicity in female BALB/c nude mouse xenografted with human MDA-MB-231 cells assessed as inflammatory cell infiltration in lung at 25 mg/kg, ip. The format is organism-based. Particulars: in vivo.
The nature of data set [15]: Systemic toxicity in female BALB/c nude mouse xenografted with human MDA-MB-231 cells assessed as inflammatory cell infiltration in kidney at 25 mg/kg, ip. The format is organism-based. Particulars: in vivo.
Data set [16] has as its target T1, Tyrosine-protein kinase receptor UFO (Homo sapiens, UniProt P30530).
T1 sequence (P30530 whole entry): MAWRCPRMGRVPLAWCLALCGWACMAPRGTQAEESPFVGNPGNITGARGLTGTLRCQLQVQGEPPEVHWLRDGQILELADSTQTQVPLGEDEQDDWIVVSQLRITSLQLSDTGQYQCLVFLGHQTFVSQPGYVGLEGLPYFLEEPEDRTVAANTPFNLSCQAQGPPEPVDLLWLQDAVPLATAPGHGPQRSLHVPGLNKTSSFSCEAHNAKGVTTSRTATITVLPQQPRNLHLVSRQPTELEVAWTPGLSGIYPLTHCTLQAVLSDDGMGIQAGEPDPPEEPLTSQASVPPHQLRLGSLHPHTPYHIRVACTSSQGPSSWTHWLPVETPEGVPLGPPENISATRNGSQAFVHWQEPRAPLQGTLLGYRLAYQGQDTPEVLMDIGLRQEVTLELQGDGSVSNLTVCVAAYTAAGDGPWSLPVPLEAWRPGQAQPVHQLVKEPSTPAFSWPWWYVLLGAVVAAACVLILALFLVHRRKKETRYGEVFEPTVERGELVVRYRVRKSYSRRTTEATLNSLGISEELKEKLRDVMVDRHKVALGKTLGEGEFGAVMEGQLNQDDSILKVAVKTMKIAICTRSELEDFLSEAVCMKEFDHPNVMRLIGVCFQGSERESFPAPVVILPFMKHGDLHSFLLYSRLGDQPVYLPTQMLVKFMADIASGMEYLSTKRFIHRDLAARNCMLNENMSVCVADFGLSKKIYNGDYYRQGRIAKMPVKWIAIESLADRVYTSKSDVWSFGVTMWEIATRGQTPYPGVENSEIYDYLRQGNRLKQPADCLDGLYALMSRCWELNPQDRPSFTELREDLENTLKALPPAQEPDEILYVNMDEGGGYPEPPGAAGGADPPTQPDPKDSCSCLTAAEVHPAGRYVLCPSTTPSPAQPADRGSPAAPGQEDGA
As to the kind of experiment: Inhibition of AXL (unknown origin) measured by FRET assay.

Structures are written as SMILES. Active and inactive are the calls of the source. No cut-off for these calls is given here. Bounds are passed on as bounds.

In general, IC50 refers to the midpoint of a concentration-inhibition curve. Low readings indicate greater potency, high ones weaker potency. Take `Nc1nc(NCCNC(=O)CCCCCCCNc2cccc3c2CN(C2CCC(=O)NC2=O)C3=O)nn1-c1cc2c(nn1)-c1ccccc1CCC2` (stereo not drawn): the IC50 in the data set on MDA-MB-231 [1] was greater than 60 µM; in the data set on 4T1 it was 27.2 µM. The IC50 at 72 h in data set [2] and in data set [3] was greater than 60 µM in each case.

As to `Nc1nc(Nc2ccc(CNC(=O)CCCCCCNc3cccc4c3CN(C3CCC(=O)NC3=O)C4=O)cc2)nn1-c1cc2c(nn1)-c1ccccc1CCC2` (stereo not drawn), the IC50 came to 29.5 µM in the data set on MDA-MB-231 [1] and 2230 µM with 4T1. Further, the half-inhibitory concentration (IC50) at 72 h in data set [2] and in [3] was greater than 60 µM throughout.

As to `Nc1nc(NCCNC(=O)CCCCNc2cccc3c2CN(C2CCC(=O)NC2=O)C3=O)nn1-c1ccc(-c2ccccc2)nn1` (stereo not drawn), the results for the IC50 in the data set with MDA-MB-231 [1] and in the data set with 4T1 were 52.2 µM and greater than 60 µM, respectively. Moreover, the IC50 at 72 h in [2] and in [3] was greater than 60 µM in each case.

On to `Nc1nc(Nc2ccc(CNC(=O)CCCCCNc3cccc4c3CN(C3CCC(=O)NC3=O)C4=O)cc2)nn1-c1cc2c(nn1)-c1ccccc1CCC2` (stereo not drawn), for which the IC50 stood at 32.8 µM in the data set on MDA-MB-231 [1] and 29.6 µM with 4T1. Also, the IC50 at 72 h in [2] and in data set [3] was greater than 60 µM each time.

For `Nc1nc(Nc2ccc(CNC(=O)CCCNc3cccc4c3CN(C3CCC(=O)NC3=O)C4=O)cc2)nn1-c1ccc(-c2ccccc2)nn1` (stereo not drawn), the IC50 with MDA-MB-231 [1] was 48 µM; with 4T1, greater than 60 µM. The IC50 at 72 h in data set [2] and in [3] was greater than 60 µM throughout.

`Nc1nc(Nc2ccc3c(c2)CC[C@@H](N2CCCC2)CC3)nn1-c1cc2c(nn1)-c1ccccc1CCC2` [BEMCENTINIB]: the IC50 came to 2.84 µM in the data set with MDA-MB-231 [1] and 0.94 µM in the data set on 4T1. Besides, the IC50 at 72 h in [2] and in data set [3] was greater than 60 µM throughout. Further, the TGI result in the data set on MDA-MB-231 [4] is “Active”. The Activity result in data set [5], in data set [6], in data set [7], in data set [8], in data set [9] and in data set [10] was “Non-Toxic” each time. Also, the Activity result in [11], in data set [12], in [13], in data set [14] and in [15] was “Non-Toxic” throughout.

Regarding `Nc1nc(NCCNC(=O)CCCNc2cccc3c2CN(C2CCC(=O)NC2=O)C3=O)nn1-c1ccc(-c2ccccc2)nn1` (stereo not drawn), the IC50 (in data set [16]; with MDA-MB-231 [1]; with 4T1) was greater than 60 µM throughout. Further, the IC50 at 72 h in [2] and in [3] was greater than 60 µM throughout.

In the case of `Nc1nc(NCCNC(=O)CCCCCCNc2cccc3c2CN(C2CCC(=O)NC2=O)C3=O)nn1-c1ccc(-c2ccccc2)nn1` (stereo not drawn), the IC50 (in [16]; with MDA-MB-231 [1]; in the data set on 4T1) was greater than 60 µM throughout. Moreover, the IC50 at 72 h in [2] and in [3] was greater than 60 µM throughout.

On to `Nc1nc(Nc2ccc(CNC(=O)CCCCCCCNc3cccc4c3CN(C3CCC(=O)NC3=O)C4=O)cc2)nn1-c1cc2c(nn1)-c1ccccc1CCC2` (stereo not drawn), for which the IC50 in the data set on MDA-MB-231 [1] is 27.6 µM; with 4T1, 21.1 µM. The IC50 at 72 h in data set [2] and in data set [3] was greater than 60 µM each time.

With `Nc1nc(NCCNC(=O)CCCNc2cccc3c2CN(C2CCC(=O)NC2=O)C3=O)nn1-c1cc2c(nn1)-c1ccccc1CCC2` (stereo not drawn), the IC50 (in [16]; in the data set with MDA-MB-231 [1]) was greater than 60 µM each time. The IC50 at 72 h in data set [2] and in data set [3] was greater than 60 µM each time.

With `Nc1nc(NCCNC(=O)CCCCNc2cccc3c2CN(C2CCC(=O)NC2=O)C3=O)nn1-c1cc2c(nn1)-c1ccccc1CCC2` (stereo not drawn), the values for the IC50 with MDA-MB-231 [1] and in the data set with 4T1 were 36.2 µM and 7.05 µM, respectively. The IC50 at 72 h in data set [2] and in data set [3] was greater than 60 µM throughout.

`Nc1nc(Nc2ccc(CNC(=O)CCCCNc3cccc4c3CN(C3CCC(=O)NC3=O)C4=O)cc2)nn1-c1cc2c(nn1)-c1ccccc1CCC2` (stereo not drawn): the results for the IC50 in the data set with MDA-MB-231 [1] and with 4T1 were 39.1 µM and 41.3 µM, respectively. Also, the IC50 at 72 h in [2] and in [3] was greater than 60 µM throughout.

Consider `Nc1nc(NCCNC(=O)CCCCCCCNc2cccc3c2CN(C2CCC(=O)NC2=O)C3=O)nn1-c1ccc(-c2ccccc2)nn1` (stereo not drawn), for which the values for the IC50 with MDA-MB-231 [1] and in the data set with 4T1 were 34.7 µM and 19.5 µM, respectively. For the same compound, the IC50 at 72 h in data set [2] and in data set [3] was greater than 60 µM throughout.

For `Nc1nc(Nc2ccc(CNC(=O)CCCNc3cccc4c3CN(C3CCC(=O)NC3=O)C4=O)cc2)nn1-c1cc2c(nn1)-c1ccccc1CCC2` (stereo not drawn), the IC50 is 41.3 µM in the data set on MDA-MB-231 [1] and 34.6 µM in the data set on 4T1. Moreover, the IC50 at 72 h in data set [2] and in data set [3] was greater than 60 µM each time.

Regarding `Nc1nc(NCCNC(=O)CCCCCCNc2cccc3c2CN(C2CCC(=O)NC2=O)C3=O)nn1-c1cc2c(nn1)-c1ccccc1CCC2` (stereo not drawn), the IC50 at 72 h in data set [2] and in data set [3] was greater than 60 µM throughout.

Consider `Nc1nc(Nc2ccc(CNC(=O)CCCCCCNc3cccc4c3CN(C3CCC(=O)NC3=O)C4=O)cc2)nn1-c1ccc(-c2ccccc2)nn1` (stereo not drawn), for which the results for the IC50 with MDA-MB-231 [1] and with 4T1 were 28.5 µM and 24.6 µM, respectively. Also, the IC50 at 72 h in [2] and in data set [3] was greater than 60 µM throughout.

Turning to `Nc1nc(Nc2ccc(CNC(=O)CCCCNc3cccc4c3CN(C3CCC(=O)NC3=O)C4=O)cc2)nn1-c1ccc(-c2ccccc2)nn1` (stereo not drawn), the IC50 in the data set on MDA-MB-231 [1] was 35.7 µM; in the data set with 4T1, 54.2 µM. The IC50 at 72 h in [2] and in [3] was greater than 60 µM throughout.

On to `Nc1nc(NCCNC(=O)CCCCCNc2cccc3c2CN(C2CCC(=O)NC2=O)C3=O)nn1-c1cc2c(nn1)-c1ccccc1CCC2` (stereo not drawn), for which the values for the IC50 with MDA-MB-231 [1] and in the data set with 4T1 were greater than 60 µM and 37.5 µM, respectively. Also, the IC50 at 72 h in [2] and in data set [3] was greater than 60 µM each time.

With `Nc1nc(NCCNC(=O)CCCCCNc2cccc3c2CN(C2CCC(=O)NC2=O)C3=O)nn1-c1ccc(-c2ccccc2)nn1` (stereo not drawn), the IC50 with MDA-MB-231 [1] was determined as 31.7 µM; with 4T1, 27.9 µM. Moreover, the IC50 at 72 h in data set [2] and in data set [3] was greater than 60 µM throughout.
